# pKi: −log10 of the molar value.
# Assays:
# KP1005 (CTX-M-14) [1] = assay: Tigemonam potentiation (MPC@4), KP1005; format: cell-based
# KP1009 (CTX-M-15) [2] = assay: Tigemonam potentiation (MPC@4), KP1009; format: cell-based
# ec308 (SHV-5) [3] = assay: Tigemonam potentiation (MPC@4), ec308; format: cell-based
# KP1010 (SHV-12) [4] = assay: Tigemonam potentiation (MPC@4), KP1010; format: cell-based
# ec302 (TEM-10) [5] = assay: Tigemonam potentiation (MPC@4), ec302; format: cell-based
# ECL1002 [6] = assay: Tigemonam potentiation (MPC@4), ECL1002; format: cell-based
# EC1010 (CMY-6) [7] = assay: Tigemonam potentiation (MPC@4), EC1010; format: cell-based; details: tigemonam alone
# [8] = tested on: strains overexpressing class A (ESBL) and class C beta-lactamases; assay: Tigemonam MIC of test strains; format: cell-based; details: across the test strains
# KP1005 (CTX-M-14) [9] = assay: Aztreonam potentiation (MPC@4), KP1005; format: cell-based
# KP1009 (CTX-M-15) [10] = assay: organism not typed; format: cell-based
# ec308 (SHV-5) [11] = assay: Aztreonam potentiation (MPC@4), ec308; format: cell-based
# KP1010 (SHV-12) [12] = assay: Aztreonam potentiation (MPC@4), KP1010; format: cell-based
# ec302 (TEM-10) [13] = assay: Aztreonam potentiation (MPC@4), ec302; format: cell-based
# ECL1002 [14] = assay: Aztreonam potentiation (MPC@4), ECL1002; format: cell-based
# EC1010 (CMY-6) [15] = assay: organism not typed; format: cell-based
# OXA-48 = OXA-48 (Klebsiella pneumoniae, UniProt Q6XEC0); assay: Ki, nitrocefin cleavage by purified enzyme, OXA-48; format: biochemical; details: nitrocefin reporter substrate; read-out: Ki (OXA-48, NCF)
# OXA-48, sequence (Q6XEC0 23-265, looked up, species assumed): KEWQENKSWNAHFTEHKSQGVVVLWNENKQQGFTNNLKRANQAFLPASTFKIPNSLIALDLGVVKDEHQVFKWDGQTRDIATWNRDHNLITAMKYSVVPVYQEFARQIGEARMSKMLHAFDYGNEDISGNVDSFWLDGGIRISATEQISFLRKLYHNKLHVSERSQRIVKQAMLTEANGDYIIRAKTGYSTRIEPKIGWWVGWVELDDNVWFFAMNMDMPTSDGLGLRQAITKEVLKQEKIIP
# Procedure, shortened: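 Readout: nitrocefin hydrolysis, A490 recorded every 10 sec over 10 min. Enzyme and inhibitor (varied concentrations) preincubated 10 min, RT, in reaction buffer before substrate addition.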
# PAM1032/KPC-2 = assay: Biapenem potentiation MPC64, PAM1032/KPC-2 (efflux proficient); format: cell-based, Pseudomonas aeruginosa; details: BLI to decrease MIC of biapenem 64-fold; MexAB-OprM overexpressed
# Protocol: (§1) Efflux of BLIs from Pseudomonas aeruginosa by the MexAB-OprM efflux pump was also evaluated. […] Due to expression of KPC-2 both strains became resistant to biapenem. […] Potency of BLIs to potentiate biapenem in these strains was determined. […] The ratio of MPC64 values for each BLI in PAM1032/KPC-2 (efflux proficient) and PAM1154/KPC-2 (efflux deficient) was determined to generate the Efflux Index (EI).
# PAM1154/KPC-2 = assay: Biapenem potentiation MPC64, PAM1154/KPC-2 (efflux deficient); format: cell-based, Pseudomonas aeruginosa; details: BLI to decrease MIC of biapenem 64-fold; lacking MexAB-OprM
# Protocol: as §1
# KP1004 (KPC-2) [16] = assay: Biapenem potentiation (MPC@1), KP1004; details: BLI with biapenem at 1 μg/mL
# KP1086 (OXA-48) = assay: Biapenem potentiation (MPC@1), KP1086; details: BLI with biapenem at 1 μg/mL
# KP1004 (KPC-2) [17] = assay: Aztreonam potentiation (MPC@4), KP1004; format: cell-based; details: read-out: Aztreonam MIC KP1004
# [18] = tested on: strains of various bacteria that are resistant to aztreonam due to expression of various β-lactamases; assay: Aztreonam MIC of test strains; format: cell-based; details: read-out: Aztreonam MICs of test strains; across the test strains
structure (smiles),measurement,setting,value
"CC1(C)[C@H](NC(=O)/C(=N\OCC(=O)O)c2csc(N)n2)C(=O)N1OS(=O)(=O)O [Tigemonam, reference compound]",Tigemonam MIC KP1005,KP1005 (CTX-M-14) [1]; tigemonam alone,Z (MIC of greater than 10 μg/mL)
same,Tigemonam MIC KP1009,KP1009 (CTX-M-15) [2]; tigemonam alone,Z (MIC of greater than 10 μg/mL)
same,Tigemonam MIC ec308,ec308 (SHV-5) [3]; tigemonam alone,Z (MIC of greater than 10 μg/mL)
same,Tigemonam MIC KP1010,KP1010 (SHV-12) [4]; tigemonam alone,Z (MIC of greater than 10 μg/mL)
same,Tigemonam MIC ec302,ec302 (TEM-10) [5]; tigemonam alone,Z (MIC of greater than 10 μg/mL)
same,Tigemonam MIC ECL1002,ECL1002 [6]; tigemonam alone,Z (MIC of greater than 10 μg/mL)
same,Tigemonam MIC EC1010,EC1010 (CMY-6) [7],Z (MIC of greater than 10 μg/mL)
same,Tigemonam MICs of test strains,[8],≥ 16 µg/mL
"O=CN[C@H]1Cc2cccc(C(=O)O)c2OB1O [F, reference compound]",AZT MPC4 CTX-M-14 KP1005,KP1005 (CTX-M-14) [9]; BLI with aztreonam at 4 μg/mL,Y (MIC of 1 μg/mL to 10 μg/mL)
same,AZT MPC4 CTX-M-15 KP1009,KP1009 (CTX-M-15) [10],Y (key: X: MIC of less than 1 ng/mL; Y: MIC of 1 μg/mL to 10 μg/mL; Z: MIC of greater than 10 μg/mL)
same,AZT MPC4 SHV-5 ec308,ec308 (SHV-5) [11]; BLI with aztreonam at 4 μg/mL,Y (MIC of 1 μg/mL to 10 μg/mL)
same,AZT MPC4 SHV-12 KP1010,KP1010 (SHV-12) [12],Y (key: X: MIC of less than 1 ng/mL; Y: MIC of 1 μg/mL to 10 μg/mL; Z: MIC of greater than 10 μg/mL)
same,AZT MPC4 TEM-10 ec302,ec302 (TEM-10) [13]; BLI with aztreonam at 4 μg/mL,Z (MIC of greater than 10 μg/mL)
same,AZT MPC4 ECL1002,ECL1002 [14]; BLI with aztreonam at 4 μg/mL,Y (MIC of 1 μg/mL to 10 μg/mL)
same,AZT MPC4 CMY-6 EC1010,EC1010 (CMY-6) [15],Y (key: X: MIC of less than 1 ng/mL; Y: MIC of 1 μg/mL to 10 μg/mL; Z: MIC of greater than 10 μg/mL)
same,TIG MPC4 CTX-M-14 KP1005,KP1005 (CTX-M-14) [1]; BLI with tigemonam at 4 μg/mL,Y (MIC of 1 μg/mL to 10 μg/mL)
same,TIG MPC4 CTX-M-15 KP1009,KP1009 (CTX-M-15) [2]; BLI with tigemonam at 4 μg/mL,Y (MIC of 1 μg/mL to 10 μg/mL)
same,TIG MPC4 SHV-5 ec308,ec308 (SHV-5) [3],Y (key: X: MIC of less than 1 ng/mL; Y: MIC of 1 μg/mL to 10 μg/mL; Z: MIC of greater than 10 μg/mL)
same,TIG MPC4 SHV-12 KP1010,KP1010 (SHV-12) [4],Y (key: X: MIC of less than 1 ng/mL; Y: MIC of 1 μg/mL to 10 μg/mL; Z: MIC of greater than 10 μg/mL)
same,TIG MPC4 TEM-10 ec302,ec302 (TEM-10) [5],Z (key: X: MIC of less than 1 ng/mL; Y: MIC of 1 μg/mL to 10 μg/mL; Z: MIC of greater than 10 μg/mL)
same,TIG MPC4 ECL1002,ECL1002 [6]; BLI with tigemonam at 4 μg/mL,X (MIC of less than 1 μg/mL)
same,pKi,OXA-48,> 9.00
same,PAM1032/KPC-2 Biapenem MPC64,PAM1032/KPC-2,5
same,PAM1154/KPC-2 Biapenem MPC64,PAM1154/KPC-2,1.25
same,BPM MPC1 KP1004 KPC-2,KP1004 (KPC-2) [16],X (MIC of less than 1 μg/mL)
same,BPM MPC1 OXA-48 KP1086,KP1086 (OXA-48),Y (MIC of 1 μg/mL to 10 μg/mL)
"C[C@H]1[C@H](NC(=O)/C(=N\OC(C)(C)C(=O)O)c2csc(N)n2)C(=O)N1S(=O)(=O)O [Aztreonam, reference compound]",MIC,KP1005 (CTX-M-14) [9]; read-out: Aztreonam MIC KP1005,> 10 µg/mL
same,MIC,KP1009 (CTX-M-15) [10]; read-out: Aztreonam MIC KP1009,> 10 µg/mL
same,MIC,ec308 (SHV-5) [11]; read-out: Aztreonam MIC ec308,> 10 µg/mL
same,MIC,KP1010 (SHV-12) [12]; read-out: Aztreonam MIC KP1010,> 10 µg/mL
same,MIC,ec302 (TEM-10) [13]; read-out: Aztreonam MIC ec302,> 10 µg/mL
same,MIC,KP1004 (KPC-2) [17],> 10 µg/mL
same,MIC,ECL1002 [14]; read-out: Aztreonam MIC ECL1002,> 10 µg/mL
same,MIC,EC1010 (CMY-6) [15]; read-out: Aztreonam MIC EC1010,> 10 µg/mL
same,MIC,[18],≥ 64 µg/mL

# From US9963467B2, “Boronic acid derivatives and therapeutic uses thereof” (Rempex Pharmaceuticals, Inc., priority 2014, dated 2018)
